Like-named read-outs stand apart in the source and are kept apart here.
Experiments:
[1] = Acute toxicity in mouse; conditions: in vivo, Mouse (ICR)
[2] = Acute toxicity in rat; conditions: in vivo, Rat (SD)
[3] = Acute toxicity in beagle; conditions: dog, in vivo, male, oral, * = maximum administration level
[4] = test system: RAEB or RAEB-T patients (MDS); assay: Oral administration of the ubenimex capsule to RAEB or RAEB-T (MDS) patients, response observed; type: in vivo; design: key to Response: CR: complete remission; GR: good result
[5] = in vivo
[6] = test system: aminopeptidase B; conditions: cf. U.S.P. No. 4,189,604; cited from earlier work
[7] = test system: tumor; conditions: cf. Japanese Pat. Publication (A2) No. 9487/1985; cited from earlier work
[8] = background statement; cited from earlier work
[9] = Toxicity, general statement; conditions: acute toxicity table given for reference
[10] = patient 1 (RAEB-T), 30mg/day oral
[11] = patient 2 (RAEB), 30mg/day oral
[12] = patient 3 (RAEB), 30mg/day oral
[13] = patient 4 (RAEB), 30mg/day oral
[14] = patient 5 (RAEB), 30mg/day oral
[15] = patient 6 (RAEB), 30mg/day oral

Which LD50 ([1]; ip, female, intraperitoneal) does the source give for `CC(C)C[C@H](NC(=O)[C@@H](O)[C@H](N)Cc1ccccc1)C(=O)O` [ubenimex, N-[(2S, 3R)-3-amono-2-hydroxy-4-phenylbutyryl]-(L)-leucine] here?
Its LD50 is 190 mg/kg.

What about the LD50 ([1]; ip, male, intraperitoneal) of the same compound?
The LD50 was 190 mg/kg.

What about the LD50 ([1]; po, female, * = maximum administration level) of the same compound?
Its LD50 is over 4000 mg/kg.

What about the LD50 ([1]; po, male, * = maximum administration level) of the same compound?
The LD50 was over 4000 mg/kg.

And the LD50 ([1]; sc, female, subcutaneous)?
Its LD50 is 1900 mg/kg.

What about the LD50 ([1]; sc, male, subcutaneous) of the same compound?
Its LD50 is 1300 mg/kg.

What about the LD50 ([2]; ip, first line, sex female, intraperitoneal) of the same compound?
The LD50 was 900 mg/kg.

What about the LD50 ([2]; ip, second line, female, intraperitoneal) of the same compound?
The LD50 was 780 mg/kg.

And the LD50 ([2]; po, first line, sex female, * = maximum administration level)?
The LD50 was over 2000 mg/kg.

And the LD50 ([2]; po, second line, female, * = maximum administration level)?
The LD50 was over 2000 mg/kg.

What about the LD50 ([2]; sc, first line, sex female, subcutaneous) of the same compound?
Its LD50 is 1900 mg/kg.

What about the LD50 ([2]; sc, second line, female, subcutaneous) of the same compound?
The LD50 was 2100 mg/kg.

And the LD50 [3]?
The LD50 was over 1200 mg/kg.

And the “Effectiveness as a remedy for MDS” value ([4]; 30mg/day oral)?
The value was “highly effective”.

And the “RAEB cases with complete remission” value ([4]; among six effective cases)?
Its value is “three”.

What about the “RAEB cases with good responses” value ([4]; among six effective cases) of the same compound?
The value was “two”.

What about the “RAEB-T cases with complete remission” value ([4]; among six effective cases) of the same compound?
Its value is “one”.

And the Effect on cytopenia ([4]; anemia, thrombocytopenia and neutropenia)?
The Effect on cytopenia was “improve cytopenia”.

What about the “Amount of transfusion to the patients” value ([4]; human, in vivo) of the same compound?
The value was “reduced or sometimes become unnecessary”.

And the “Effect on excess blast” value ([4]; human, in vivo)?
Its value is “reduce excess blast”.

And the Effect on myelodysplasia ([4]; human, in vivo)?
The Effect on myelodysplasia was “improve myelodysplasia”.

And the “Patients with good results” value ([4]; of seven RAEB or RAEB-T patients, 30mg/day oral)?
Its value is “six”.

What about the Days till response [4, 10] of the same compound?
Its Days till response is 34 days.

And the Response [4, 10]?
Its Response is “CR”.

What about the “Peripheral blood Granulocytes No.” value ([4]; patient 1 (RAEB-T), 30mg/day oral, after treatment (BT 1.11)) of the same compound?
Its value is 2.94e+09 L⁻¹.

What about the “Peripheral blood Hemoglobin” value ([4]; patient 1 (RAEB-T), 30mg/day oral, after treatment (BT 10.5)) of the same compound?
The value was 13.6 g/dL.

What about the “Bone marrow Blast” value ([4]; patient 1 (RAEB-T), 30mg/day oral, after treatment (BT 22.8)) of the same compound?
The value was 3.2%.

And the “Peripheral blood Platelets” value ([4]; patient 1 (RAEB-T), 30mg/day oral, after treatment (BT 350))?
Its value is 3.72e+11 L⁻¹.

What about the Duration of response ([4]; patient 1 (RAEB-T), 30mg/day oral, observation continued) of the same compound?
The Duration of response was 8 week.

What about the Days till response [4, 11] of the same compound?
Its Days till response is 28 days.

And the Response [4, 11]?
Its Response is “CR”.

What about the “Peripheral blood Granulocytes No.” value ([4]; patient 2 (RAEB), 30mg/day oral, after treatment (BT 0.62)) of the same compound?
The value was 2.44e+09 L⁻¹.

What about the “Peripheral blood Hemoglobin” value ([4]; patient 2 (RAEB), 30mg/day oral, after treatment (BT 7.9)) of the same compound?
The value was 14.4 g/dL.

What about the “Bone marrow Blast” value ([4]; patient 2 (RAEB), 30mg/day oral, after treatment (BT 13.2)) of the same compound?
Its value is 5.2%.

And the “Peripheral blood Platelets” value ([4]; patient 2 (RAEB), 30mg/day oral, after treatment (BT 81))?
The value was 2.09e+11 L⁻¹.

What about the Duration of response ([4]; patient 2 (RAEB), 30mg/day oral, ubenimex administration suspended) of the same compound?
Its Duration of response is 11 week.

What about the Days till response [4, 12] of the same compound?
Its Days till response is 97 days.

And the Response [4, 12]?
Its Response is “CR”.

What about the “Peripheral blood Granulocytes No.” value ([4]; patient 3 (RAEB), 30mg/day oral, after treatment (BT 0.99)) of the same compound?
The value was 1.75e+09 L⁻¹.

And the “Bone marrow Blast” value ([4]; patient 3 (RAEB), 30mg/day oral, after treatment (BT 5.2))?
The value was 0.4%.

What about the “Peripheral blood Hemoglobin” value ([4]; patient 3 (RAEB), 30mg/day oral, after treatment (BT 6.8)) of the same compound?
Its value is 12.3 g/dL.

And the “Peripheral blood Platelets” value ([4]; patient 3 (RAEB), 30mg/day oral, after treatment (BT 12))?
Its value is 9.6e+10 L⁻¹.

And the Duration of response ([4]; patient 3 (RAEB), 30mg/day oral, observation continued)?
Its Duration of response is 21 week.

What about the Days till response [4, 13] of the same compound?
The Days till response was 175 days.

What about the Response [4, 13] of the same compound?
The Response was “CR”.

What about the “Peripheral blood Granulocytes No.” value ([4]; patient 4 (RAEB), 30mg/day oral, after treatment (BT 2.92)) of the same compound?
The value was 2.35e+09 L⁻¹.

What about the “Bone marrow Blast” value ([4]; patient 4 (RAEB), 30mg/day oral, after treatment (BT 6.0)) of the same compound?
Its value is 2.0%.

What about the “Peripheral blood Hemoglobin” value ([4]; patient 4 (RAEB), 30mg/day oral, after treatment (BT 7.6)) of the same compound?
Its value is 11.0 g/dL.

And the “Peripheral blood Platelets” value ([4]; patient 4 (RAEB), 30mg/day oral, after treatment (BT 30))?
The value was 8.2e+10 L⁻¹.

What about the Duration of response ([4]; patient 4 (RAEB), 30mg/day oral, observation continued) of the same compound?
Its Duration of response is 28 week.

And the Days till response [4, 14]?
The Days till response was 134 days.

And the Response [4, 14]?
Its Response is “GR”.

And the “Peripheral blood Granulocytes No.” value ([4]; patient 5 (RAEB), 30mg/day oral, after treatment (BT 1.22))?
Its value is 2.44e+09 L⁻¹.

And the “Peripheral blood Hemoglobin” value ([4]; patient 5 (RAEB), 30mg/day oral, after treatment (BT 8.5))?
The value was 8.7 g/dL.

And the “Peripheral blood Platelets” value ([4]; patient 5 (RAEB), 30mg/day oral, after treatment (BT 21))?
The value was 1.76e+11 L⁻¹.

What about the Duration of response ([4]; patient 5 (RAEB), 30mg/day oral, observation continued) of the same compound?
Its Duration of response is 32 week.

What about the Days till response [4, 15] of the same compound?
Its Days till response is 67 days.

And the Response [4, 15]?
The Response was “GR”.

And the “Peripheral blood Granulocytes No.” value ([4]; patient 6 (RAEB), 30mg/day oral, after treatment (BT 1.45))?
Its value is 2.02e+09 L⁻¹.

What about the “Peripheral blood Hemoglobin” value ([4]; patient 6 (RAEB), 30mg/day oral, after treatment (BT 10.9)) of the same compound?
The value was 12.2 g/dL.

What about the “Peripheral blood Platelets” value ([4]; patient 6 (RAEB), 30mg/day oral, after treatment (BT 42)) of the same compound?
Its value is 1.86e+11 L⁻¹.

What about the Duration of response ([4]; patient 6 (RAEB), 30mg/day oral, observation continued) of the same compound?
The Duration of response was 20 week.

What about the “Accumulated toxicity upon repeated administration” value [5] of the same compound?
The value was “low accumulated toxicity”.

And the “Inhibition of aminopeptidase B” value [6]?
The value was “inhibits aminopeptidase B”.

What about the Antitumor activities [7] of the same compound?
Its Antitumor activities is “has a antitumor activities”.

And the Toxicity [8]?
Its Toxicity is “low toxicity”.

What about the Toxicity [9] of the same compound?
Its Toxicity is “low toxicity”.

Source: patent US4963588A, “Use of ubenimex for treating myelodysplastic syndrome” (priority 1989, dated 1990)
